Data published in patent US10202361B2, “Pyridazinones as herbicides” (E I DU PONT DE NEMOURS AND COMPANY, priority 2014, dated 2019).

Columns and labels:
Format in all cases: in vivo
[1] = system: Russian thistle (Salsola kali); assay: Test D pre-/postemergence controlled growth environment herbicide test; conditions: scale 0 to 100
Summary of the method: (§1)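 Pre-emergence treatment on silt loam soil and post-emergence treatment of 1- to 4-leaf plants (2–18 cm) in peat-based medium, compounds in a non-phytotoxic solvent with surfactant. Visual rating against untreated controls after 14–21 d in a controlled environment, scale 0 (no effect) to 100 (complete control).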

[2] = system: oat, wild (wild oat, Avena fatua); assay: as above; conditions: scale 0 to 100
Summary of the method: as §1

[3] = system: foxtail, green (green foxtail, Setaria viridis); assay: as above; conditions: scale 0 to 100
Summary of the method: as §1

[4] = system: speedwell (bird's-eye speedwell, Veronica persica); assay: as above; conditions: scale 0 to 100
Summary of the method: as §1

[5] = system: barley, winter (winter barley, Hordeum vulgare); assay: as above; conditions: scale 0 to 100
Summary of the method: as §1

[6] = system: radish, wild (wild radish, Raphanus raphanistrum); assay: as above; conditions: scale 0 to 100
Summary of the method: as §1

[7] = system: surinam grass (Brachiaria decumbens); assay: Test E pre-/postemergence greenhouse herbicide test; conditions: Preemergence, scale 0 to 100
[8] = system: cocklebur (common cocklebur, Xanthium strumarium); assay: as above; conditions: Preemergence, scale 0 to 100
[9] = system: crabgrass, large (large crabgrass Digitaria sanguinalis); assay: as above; conditions: Preemergence, scale 0 to 100
[10] = system: nutsedge, yellow (yellow nutsedge, Cyperus esculentus); assay: as above; conditions: Preemergence, scale 0 to 100

Which results are given for `Cc1cc(=O)n(-c2ccc(F)cc2)nc1Oc1ccnc(C(F)(F)F)c1` [Compound 14, 2-(4-fluorophenyl)-5-methyl-6-[[2-(trifluoromethyl)-4-pyridinyl]oxy]-3 (2H)-pyridazinone]?
Plant response rating ([1]; Postemergence, 16 g ai/ha): 20; Plant response rating ([1]; Postemergence, 31 g ai/ha): 10; Plant response rating ([1]; Postemergence, 62 g ai/ha): 15; Plant response rating ([1]; Postemergence, 125 g ai/ha): 20; Plant response rating ([1]; Postemergence, 250 g ai/ha): 35; Plant response rating ([1]; Preemergence, 16 g ai/ha): 0; Plant response rating ([1]; Preemergence, 31 g ai/ha): 50; Plant response rating ([1]; Preemergence, 62 g ai/ha): 85; Plant response rating ([1]; Preemergence, 125 g ai/ha): 50; Plant response rating ([1]; Preemergence, 250 g ai/ha): 95; Plant response rating ([2]; Postemergence, 16 g ai/ha): 10; Plant response rating ([2]; Postemergence, 31 g ai/ha): 10; Plant response rating ([2]; Postemergence, 62 g ai/ha): 15; Plant response rating ([2]; Postemergence, 125 g ai/ha): 20; Plant response rating ([2]; Postemergence, 250 g ai/ha): 30; Plant response rating ([2]; Preemergence, 16 g ai/ha): 0; Plant response rating ([2]; Preemergence, 31 g ai/ha): 0; Plant response rating ([2]; Preemergence, 62 g ai/ha): 0; Plant response rating ([2]; Preemergence, 125 g ai/ha): 10; Plant response rating ([2]; Preemergence, 250 g ai/ha): 20; Plant response rating ([3]; Postemergence, 16 g ai/ha): 30; Plant response rating ([3]; Postemergence, 31 g ai/ha): 10; Plant response rating ([3]; Postemergence, 62 g ai/ha): 20; Plant response rating ([3]; Postemergence, 125 g ai/ha): 15; Plant response rating ([3]; Postemergence, 250 g ai/ha): 15; Plant response rating ([3]; Preemergence, 16 g ai/ha): 0; Plant response rating ([3]; Preemergence, 31 g ai/ha): 15; Plant response rating ([3]; Preemergence, 62 g ai/ha): 40; Plant response rating ([3]; Preemergence, 125 g ai/ha): 70; Plant response rating ([3]; Preemergence, 250 g ai/ha): 100; Plant response rating ([4]; Postemergence, 16 g ai/ha): 100; Plant response rating ([4]; Postemergence, 31 g ai/ha): 100; Plant response rating ([4]; Postemergence, 62 g ai/ha): 100; Plant response rating ([4]; Postemergence, 125 g ai/ha): 100; Plant response rating ([4]; Postemergence, 250 g ai/ha): 100; Plant response rating ([4]; Preemergence, 250 g ai/ha): 100; Plant response rating ([5]; Postemergence, 16 g ai/ha): 10; Plant response rating ([5]; Postemergence, 31 g ai/ha): 15; Plant response rating ([5]; Postemergence, 62 g ai/ha): 20; Plant response rating ([5]; Postemergence, 125 g ai/ha): 20; Plant response rating ([5]; Postemergence, 250 g ai/ha): 25; Plant response rating ([5]; Preemergence, 16 g ai/ha): 15; Plant response rating ([5]; Preemergence, 31 g ai/ha): 5; Plant response rating ([5]; Preemergence, 62 g ai/ha): 5; Plant response rating ([5]; Preemergence, 125 g ai/ha): 5; Plant response rating ([5]; Preemergence, 250 g ai/ha): 5; Plant response rating ([6]; Postemergence, 16 g ai/ha): 40; Plant response rating ([6]; Postemergence, 31 g ai/ha): 80; Plant response rating ([6]; Postemergence, 62 g ai/ha): 70; Plant response rating ([6]; Postemergence, 125 g ai/ha): 75; Plant response rating ([6]; Postemergence, 250 g ai/ha): 80; Plant response rating ([6]; Preemergence, 16 g ai/ha): 100; Plant response rating ([6]; Preemergence, 31 g ai/ha): 100; Plant response rating ([6]; Preemergence, 62 g ai/ha): 100; Plant response rating ([6]; Preemergence, 125 g ai/ha): 100; Plant response rating ([6]; Preemergence, 250 g ai/ha): 100

What does the source list for `COc1cc(=O)n(-c2ccc(C(F)(F)F)cc2)nc1Cc1ccnc(C(F)(F)F)c1` [Compound 16, 5-methoxy-2-[4-(trifluoromethyl)phenyl]-6-[[2-(trifluoromethyl)-4-pyridinyl]methyl]-3(2H)-pyridazinone]?
Plant response rating: Surinam Grass ([7]; 62 g ai/ha): 25; Plant response rating: Surinam Grass ([7]; 125 g ai/ha): 40; Plant response rating: Surinam Grass ([7]; 250 g ai/ha): 98; Plant response rating: Cocklebur ([8]; 125 g ai/ha): 0; Plant response rating: Cocklebur ([8]; 250 g ai/ha): 0; Plant response rating: Crabgrass, Large ([9]; 62 g ai/ha): 100; Plant response rating: Crabgrass, Large ([9]; 125 g ai/ha): 100; Plant response rating: Crabgrass, Large ([9]; 250 g ai/ha): 100; Plant response rating: Nutsedge, Yellow ([10]; 62 g ai/ha): 20; Plant response rating: Nutsedge, Yellow ([10]; 125 g ai/ha): 20; Plant response rating: Nutsedge, Yellow ([10]; 250 g ai/ha): 40

For `CCOc1cc(=O)n(-c2ccc(F)cc2)nc1Cc1ccnc(C(F)(F)F)c1` [Compound 25, 5-ethoxy-2-(4-fluorophenyl)-6-[[2-(trifluoromethyl)-4-pyridinyl]methyl]-3 (2H)-pyridazinone], which “Plant response rating: Surinam Grass” value ([7]; 8 g ai/ha) is on record?
Its value is 5.

And the “Plant response rating: Surinam Grass” value ([7]; 16 g ai/ha)?
The value was 10.

And the “Plant response rating: Surinam Grass” value ([7]; 31 g ai/ha)?
The value was 80.

What about the “Plant response rating: Surinam Grass” value ([7]; 62 g ai/ha) of the same compound?
The value was 100.

What about the “Plant response rating: Surinam Grass” value ([7]; 125 g ai/ha) of the same compound?
Its value is 100.

And the “Plant response rating: Cocklebur” value ([8]; 8 g ai/ha)?
The value was 0.

And the “Plant response rating: Cocklebur” value ([8]; 16 g ai/ha)?
Its value is 50.

And the “Plant response rating: Cocklebur” value ([8]; 31 g ai/ha)?
The value was 20.

What about the “Plant response rating: Cocklebur” value ([8]; 62 g ai/ha) of the same compound?
Its value is 65.

And the “Plant response rating: Cocklebur” value ([8]; 125 g ai/ha)?
The value was 65.

And the “Plant response rating: Crabgrass, Large” value ([9]; 8 g ai/ha)?
The value was 0.

And the “Plant response rating: Crabgrass, Large” value ([9]; 16 g ai/ha)?
The value was 0.

And the “Plant response rating: Crabgrass, Large” value ([9]; 31 g ai/ha)?
The value was 75.

What about the “Plant response rating: Crabgrass, Large” value ([9]; 62 g ai/ha) of the same compound?
Its value is 100.

And the “Plant response rating: Crabgrass, Large” value ([9]; 125 g ai/ha)?
The value was 100.

What about the “Plant response rating: Nutsedge, Yellow” value ([10]; 8 g ai/ha) of the same compound?
Its value is 0.

And the “Plant response rating: Nutsedge, Yellow” value ([10]; 16 g ai/ha)?
Its value is 0.

What about the “Plant response rating: Nutsedge, Yellow” value ([10]; 31 g ai/ha) of the same compound?
The value was 0.

What about the “Plant response rating: Nutsedge, Yellow” value ([10]; 62 g ai/ha) of the same compound?
Its value is 0.

And the “Plant response rating: Nutsedge, Yellow” value ([10]; 125 g ai/ha)?
The value was 0.
